Results published in patent publication US20250057832A1, “USE OF A CLASS OF 1,4-DIHYDRO-NAPHTHYRIDINE DERIVATIVES IN TREATMENT OF TUMORS” (NEURODAWN PHARMACEUTICAL CO., LTD., priority 2021, published 2025).

Experiments:
T98G cells [1] = assay: Vacuolation induction in T98G cells (Example 1); type: cell-based, human; details: for Vacuolation rate (%): 6 hours, mean±SD; for Induction of vacuolation in T98 cells: FIG. 1 and Table 1
Description: T98G cells were stably passaged twice. When the cell density reached more than 85%, the cells were digested with 0.05% trypsin-EDTA for 3 minutes, resuspended with the culture medium, and plated in a 12-well plate at a certain density, with each well system being 1 mL. The cells were cultured for 24 hours, and added with the compound solution prepared above to each well according to the grouping, so that the concentrations of the compounds in the culture system were respectively 5 μM, 10 μM, 20 μM, 40 μM, and 60 μM. An equal volume of DMSO was added as a control well.
After 6 hours of drug treatment, the plates were observed under a microscope with a 20× objective lens, and five fields of view were randomly selected for each well to take photos and record. If in the observed field of view, bright vacuoles with clear border appeared in the cell, and at least one of the following conditions was met: 1) a cell contained at least 1 vacuole with a diameter greater than 3 μm; 2) a cell contained 3 or more vacuoles with a diameter within the range of 0.5-3 μm, the cell was considered to be methuosis-positive cells.
Among them, CELL positive: the number of methuosis-positive cells; CELL normal: the number of cells with normal morphology

T98G cells [2] = assay: Cell proliferation inhibition assay, T98G, CellCounting-Lite 2.0 (Example 1); type: cell-based, human; details: for IC50: Homo sapiens, T98G, 72 hours of drug treatment
Description: T98G cells were stably passaged twice. When the cell density reached above 85%, the cells were digested with 0.05% trypsin-EDTA for 3 minutes, resuspended, plated in a 96-well plate at the corresponding density, and cultured for 24 hours. The cells were treated with drugs at final concentrations of the culture system of 0.41 μM, 1.23 μM, 3.7 μM, 11.1 μM, 33.3 μM, and 100 μM, respectively. After 72 hours of drug treatment, cell viability was determined using CellCounting-Lite™ 2.0 kit. The plate was added with reagents at 100 µL/well according to the CellCounting-Lite™ 2.0 kit instructions, and shaken for 10 minutes. The luminescence value (LUM) as read on a multi-function plate reader, and the relative viability of the cells was calculated.
Relative viability of tumor cells V (%)=(LUM-LUMbackground)/(LUMnormal control−LUMbackground)×100%. LUMbackground was the background reading of the complete culture medium well added with the detection reagent. The half inhibitory concentration (IC50) was calculated using GraphPad Prism 8.0.1 statistical software.

[3] = system: U87MG-Luc glioblastoma cell in situ transplantation tumor; assay: S2 combined with TMZ in U87MG-Luc glioblastoma in situ transplantation tumor model in nude mice (Example 5); details: TMZ 3 mg/kg
Description: Before the transplantation, the U87MG-Luc cells were digested with 0.05%-trypsin-EDTA, resuspended with pre-cooled PBS to 4×10^7 cells/mL, and transferred to ice for later use. The nude mice were anesthetized with isoflurane gas, and then fixed on a stereotaxic machine in a prone position. The scalp of the nude mouse was disinfected with iodophor, and incised sagittally with a scalpel. The incision was cleaned with iodophor. The skull was exposed, and drilled with a skull drill extending 1.0 mm in front of the bregma and deviating the right side 2.0 mm. 5 μL of cell suspension (2×10^5 cells) was manually injected with a 10 μL flat-head microsyringe, with inserting the needle to a depth of 3.5 mm, withdrawing the needle 0.5 mm, and injecting for about 10 minutes. […]
On days 7, 14, and 21 after the transplantation, 200 μL of 15 mg/mL D-luciferin potassium salt solution, which was filtered and sterilized through a 0.22 μm filter, was injected intraperitoneally. […] Luorescence intensity was analyzed using Living Image software to obtain fluorescence intensity [p/s], which reflected the size of tumor tissue in the brain of experimental animals.
The survival conditions of experimental animals were monitored, and the animals' death dates were recorded timely.
Quantitative data are expressed as mean±standard error. […]

[4] = system: human glioma cell line T98G; details: single drug, maximum drug concentration of 20 M, 6 hours
Description: T98G cells were stably passaged twice. […] The cells were cultured for 24 hours, and added with the compound solution prepared above to each well according to the grouping, such that the compound concentrations in the culture system were 0.1 M, 1 M, 5 μM, and 20 M, respectively. An equal volume of DMSO was added as a control well.
If bright vacuoles with clear border appeared in the observed field of view, and at least one of the following conditions was met: 1) a cell contained at least one vacuole with a diameter greater than 3 μm; 2) a cell contained 3 or more vacuoles with a diameter within the range of 0.5-3 μm; the cell was considered as a methuosis-positive cell.

Row | SMILES | Vacuolation rate (%) (T98G cells [1]; 5 μM) | Vacuolation rate (%) (T98G cells [1]; 10 μM) | Vacuolation rate (%) (T98G cells [1]; 20 μM) | Induction of vacuolation in T98 cells (T98G cells [1]) | IC50 (T98G cells [2]) [µM] | Rank of vacuolation-inducing activity among the derivatives (T98G cells [1]) | Vacuolation rate (%) (T98G cells [1]; 40 μM) | Proliferation inhibitory activity on T98G (in words) (T98G cells [2]; 72 hours) | Median survival period ([3]; vehicle 30) [days] | Overall survival period ([3]; vehicle 33) [days] | Induction of vacuolated cell phenotype [4]
1 | CCOC(=O)C1=C(C)Nc2nc3c(c(N)c2[C@@H]1c1ccccc1Cl)CC(C)(C)CC3 [(+)-S2] | 1.3 ± 1.6 | 10.0 ± 4.2 | 69.3 ± 6.9 | can induce vacuolation | 5.3 |  |  |  |  |  | 
2 | CCOC(=O)C1=C(C)Nc2nc3c(c(N)c2[C@H]1c1ccccc1Cl)CC(C)(C)CC3 [(−)-S2] | 1.2 ± 1.7 | 21.9 ± 9.0 | 96.47 ± 2.4 | can induce vacuolation | 9.8 |  |  |  |  |  | 
3 | CCOC(=O)C1=C(C)Nc2nc3c(c(N)c2C1c1ccccc1)CCCC3 (stereo not drawn) [Compound S1] | 0.0 | 0.3 ± 0.6 | 2.23 ± 0.5 | can induce vacuolation | 47.8 | weakest vacuolation-inducing activity | 10.0 ± 5.6 | weak |  |  | 
4 | C=CCOC(=O)C1=C(C)Nc2nc3c(c(N)c2C1c1cccc(F)c1)CC(C)(C)CC3 (stereo not drawn) [Compound S3] | 1.1 ± 1.5 | 5.34 ± 1.2 | 9.04 ± 3.8 | can induce vacuolation | 7 |  | 57.4 ± 13.9 |  |  |  | 
5 | C#CCOC(=O)C1=C(C)Nc2nc3c(c(N)c2C1c1cccc(F)c1)CC(C)(C)CC3 (stereo not drawn) [Compound S4] | 0.6 ± 1.4 | 5.0 ± 1.3 | 10.43 ± 1.0 | can induce vacuolation | 12.7 |  | 76.9 ± 12.1 |  |  |  | 
6 | COCCOC(=O)C1=C(C)Nc2nc3c(c(N)c2C1c1ccccc1Cl)CC(C)(C)CC3 (stereo not drawn) [Compound S5] | 1.4 ± 1.4 | 10.7 ± 0.90 | 35.1 ± 1.3 | can induce vacuolation | 4.5 |  |  |  |  |  | 
7 | CC1=C(C(=O)OC(C)C)C(c2cccc(F)c2)c2c(nc3c(c2N)CC(C)(C)CC3)N1 (stereo not drawn) [Compound S6] | 0.00 | 10.5 ± 1.6 | 15.3 ± 1.3 | can induce vacuolation | 20.5 |  | 52.3 ± 2.5 |  |  |  | 
8 | Cn1nnc2c(C(N)=O)ncn2c1=O [TMZ, Temozolomide] |  |  |  |  |  |  |  |  | 33.5 | 35 | 
9 | COc1ccc([C@@H]2Sc3ccccc3N(CCN(C)C)C(=O)[C@@H]2OC(C)=O)cc1 [diltiazem] |  |  |  |  |  |  |  |  |  |  | None of calcium channel inhibitors nifedipine, verapamil, diltiazem, and flunarizine with a maximum drug concentration of 20 M could induce a vacuolated cell phenotype
10 | Fc1ccc(C(c2ccc(F)cc2)N2CCN(C/C=C/c3ccccc3)CC2)cc1 [flunarizine] |  |  |  |  |  |  |  |  |  |  | None of calcium channel inhibitors nifedipine, verapamil, diltiazem, and flunarizine with a maximum drug concentration of 20 M could induce a vacuolated cell phenotype
